Data reported in patent US20190374601A1, “METHODS FOR TREATING FUNGAL INFECTIONS” (priority 2017, published 2019).
Marks after values point to notes of the source that are not given here.

What was measured:
Format in all cases: in vivo
T. mentagrophytes [1] = experiment: Hair root invasion test (mycological evaluation), T. mentagrophytes dermatophytosis guinea pig model, different doses once weekly, Example 2; conditions: 10 mg/kg PO days 1 and 8, evaluated study day 12, relative to vehicle control
Protocol: (§1) Procedures for animal care and use, preparation of standard inoculum, and infection of the animals were carried out following the same steps as described in Example 1.
(§2) Infected guinea pigs were randomized into the following (1)-(5) groups (10 per group) (see Table 4): (1) a vehicle control (water+mannitol); (2) terbinafine 10 mg/kg PO days 1 and 8, as a positive control; (3) CD101 10 mg/kg SQ days 1 and 8; (4) CD101 20 mg/kg SQ days 1 and 8; and (5) CD101 40 mg/kg SQ days 1 and 8.
(§3) Animals were treated with CD101 SQ or PO (for terbinafine) once a week on days 1 and 8.
(§4) Study Day 1: Infect the animals with T. mentagrophytes and begin treatments.
(§5) Study Day 8: Last treatment.
(§6) Study Day 12: Clinical evaluation of the four quadrants in the marked area is done. Hair samples were obtained from each quadrant. Hairs (10 per quadrant) were planted in Potato Dextrose Agar, and incubated for 48 h for mycological evaluation. Procedures for clinical and mycological evaluations are described below.
(§7) The compounds was administered SQ or PO (0.3 mL/kg […]).
(§8) Hair samples were removed with sterile forceps from four quadrants. Ten hair samples from each quadrant were inoculated onto the corresponding quadrant on the Potato Dextrose agar plate and incubated at 30° C. for 2 days. The fungal growth at the hair root was examined under a stereomicroscope. The effectiveness of a compound in reducing the number of mycologically positive hair sample per treated group was expressed as percentage relative to the untreated control group of animals using the following formula:
where T=Positive hair in the test group, K=Positive hair in the Untreated control.

[2] = test system: T. mentagrophytes ATCC 24953; experiment: Hair root invasion test (mycological evaluation), T. mentagrophytes dermatophytosis guinea pig model, Example 1; conditions: evaluated study day 10, relative to vehicle control
Protocol: (§9) A request was made to the Animal Resource Center (ARC) at Case Western Reserve University to order the required number of male albino Harlan-Sprague-Dawley Guinea-Pigs (San Diego, Calif.) with a body weight of 450-500 g. Animals were allowed to acclimate for a minimum of 5 days prior to use. Environmental controls for the animal room were set to maintain a temperature of 16 to 22° C., a relative humidity of 30-70%, and a 12:12 light-dark cycle.
(§10) T. mentagrophytes ATCC 24953 was used as the infecting fungus. This strain was selected because it can cause skin infection and results in inflammatory reaction.
(§11) T. mentagrophytes (from frozen stock) was sub-cultured on Potato Dextrose Agar plates and incubated at 30° C. for 5-7 days. The colonies were scraped from the plates using sterile normal saline (NaCl 0.85%) solution. After washing for three times with sterile saline the conidia were re-suspended in the same solution. Ten-fold dilutions of conidia suspension were prepared and counted using a hemacytometer. Working suspension of conidia was prepared at a final concentration of 1×10^7 Colony Forming Units (CFUs)/100 μL in normal saline.
(§12) Each animal was anesthetized with a cocktail of xylazine and ketamine: 0.2 mL intramuscularly. Using an electric shaver, hair was clipped on left side of the guinea pig back. A closer shave was done with a disposable razor. Using a stencil, a square of 2.5 cm×2.5 cm was marked. The marked skin area was abraded with sterile fine grit sandpaper. A cell suspension containing 1×10^7 conidia in 100 μL was applied and rubbed thoroughly on the abraded skin.
(§13) Beginning two hours post inoculation, animals were treated subcutaneously (SQ) for CD101 and orally (PO) terbinafine once daily for a period of nine days, or once a week on days 1 and 8.
(§14) Study Day 1: Infected the animals with T. mentagrophytes and begin treatments.
(§15) Study Day 9 (treatment day 9): End treatments.
as §6, with “10:” for “12:”, “was” for “is”, “quadrant” for “quadrant. Hairs”, “quadrant). Hairs” for “quadrant)”
(§16) CD101 was administered SQ in 0.3 mL, while the terbinafine was given orally in 0.3 mL. Vehicle treated group was also included.
as §8, with “with a” for “with”, “group is” for “group was”, “the vehicle” for “the untreated”
where, T=Positive hair in the test group, K=Positive hair in the Untreated control.

T. mentagrophytes [3] = experiment: Clinical evaluation of infected skin, T. mentagrophytes dermatophytosis guinea pig model, different doses once weekly, Example 2; conditions: 10 mg/kg PO days 1 and 8, evaluated study day 12, relative to vehicle control
Protocol: as §1, §2, §3, §4, §5, §6, §7
(§17) Clinical assessment of local changes of the infected skin area was scored as follows:
(§18) 1=Few slightly erythematous places on the skin
(§19) 2=Well-defined redness, swelling with bristling hairs.
(§20) 3=Large areas or marked redness incrustation, scaling, bald patches, ulcerated in places.
(§21) 4=Partial damage to the integument and loss of hair
(§22) 5=Extensive damage to the integument and complete loss of hair at the site of infection.
Any other local skin reactions were noted. The assessment of clinical evaluation in the change of scores per treatment group was expressed as percentage relative to the untreated control group of animals using the following formula:
where T=Scores in the test group. K=Scores in the untreated control

[4] = test system: T. mentagrophytes ATCC 24953; experiment: Clinical evaluation of infected skin, T. mentagrophytes dermatophytosis guinea pig model, Example 1; conditions: evaluated study day 10, relative to vehicle control
Protocol: as §9, §10, §11, §12, §13, §14, §15
as §6, with “10:” for “12:”, “was” for “is”, “quadrant” for “quadrant. Hairs”, “quadrant). Hairs” for “quadrant)”
as §16, §17, §18, §19, §20, §21, §22
Any other local skin reactions were noted. The assessment of clinical evaluation in the change of scores per treatment group is expressed as percentage relative to the vehicle control group of animals using the following formula:
where, T=Scores in the test group. K=Scores in the untreated control

[5] = 10 mg/kg PO daily for nine days
[6] = 10 mg/kg PO daily for nine days, listed as terbinafine
[7] = 10 mg/kg PO once a week (days 1 and 8)
[8] = 10 mg/kg PO once a week (days 1 and 8), listed as terbinafine

Structure (SMILES): CN(C/C=C/C#CC(C)(C)C)Cc1cccc2ccccc12 [Terbinafine, terbinafine, reference compound]
- Percent Efficacy Mycological (T. mentagrophytes [1]): 54.2* %
- Percent Efficacy Mycological (T. mentagrophytes [1]; listed as terbinafine): 54.2%
- Percent Efficacy Mycological [2, 5]: 91.6* %
- Percent Efficacy Mycological [2, 6]: 91.6%
- Percent Efficacy Mycological [2, 7]: 83.1* %
- Percent Efficacy Mycological [2, 8]: 83.1%
- Percent Efficacy Clinical (T. mentagrophytes [3]): 76.8* %
- Percent Efficacy Clinical (T. mentagrophytes [3]; listed as terbinafine): 76.8%
- Percent Efficacy Clinical [4, 5]: 78.7* %
- Percent Efficacy Clinical [4, 6]: 78.7%
- Percent Efficacy Clinical [4, 7]: 60.6* %
- Percent Efficacy Clinical [4, 8]: 60.6%
